Measured values reported in ChEMBL document CHEMBL1154653, “Discovery and pharmacological characterization of aryl piperazine and piperidine ethers as dual acting norepinephrine reuptake inhibitors and 5-HT1A partial agonists” (Bioorg Med Chem Lett, 2009).

Tests used:
[1] = target: T1, Sodium-dependent dopamine transporter (Homo sapiens, UniProt Q01959); assay type: cell-based, HEK293
[2] = target: T2, 5-hydroxytryptamine receptor 1A (Homo sapiens, UniProt P08908); assay: biochemical
T2 sequence (P08908 whole entry): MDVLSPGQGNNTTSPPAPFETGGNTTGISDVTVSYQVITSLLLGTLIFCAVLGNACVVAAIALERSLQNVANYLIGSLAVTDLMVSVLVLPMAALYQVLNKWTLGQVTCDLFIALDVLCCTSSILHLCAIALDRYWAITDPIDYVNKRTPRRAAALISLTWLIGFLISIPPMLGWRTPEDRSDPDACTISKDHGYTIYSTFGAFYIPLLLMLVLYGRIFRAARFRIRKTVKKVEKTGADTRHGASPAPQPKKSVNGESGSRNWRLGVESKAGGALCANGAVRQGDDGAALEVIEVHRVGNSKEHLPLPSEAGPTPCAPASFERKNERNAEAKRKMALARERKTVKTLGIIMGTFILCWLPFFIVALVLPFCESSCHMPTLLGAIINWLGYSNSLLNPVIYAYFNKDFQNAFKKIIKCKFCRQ
Description: Displacement of [3H]8-OH-DPAT from human 5HT1A receptor expressed in CHO cells

[3] = target: T3, Sodium-dependent noradrenaline transporter (Homo sapiens, UniProt P23975); assay: biochemical
T3 sequence (P23975 whole entry): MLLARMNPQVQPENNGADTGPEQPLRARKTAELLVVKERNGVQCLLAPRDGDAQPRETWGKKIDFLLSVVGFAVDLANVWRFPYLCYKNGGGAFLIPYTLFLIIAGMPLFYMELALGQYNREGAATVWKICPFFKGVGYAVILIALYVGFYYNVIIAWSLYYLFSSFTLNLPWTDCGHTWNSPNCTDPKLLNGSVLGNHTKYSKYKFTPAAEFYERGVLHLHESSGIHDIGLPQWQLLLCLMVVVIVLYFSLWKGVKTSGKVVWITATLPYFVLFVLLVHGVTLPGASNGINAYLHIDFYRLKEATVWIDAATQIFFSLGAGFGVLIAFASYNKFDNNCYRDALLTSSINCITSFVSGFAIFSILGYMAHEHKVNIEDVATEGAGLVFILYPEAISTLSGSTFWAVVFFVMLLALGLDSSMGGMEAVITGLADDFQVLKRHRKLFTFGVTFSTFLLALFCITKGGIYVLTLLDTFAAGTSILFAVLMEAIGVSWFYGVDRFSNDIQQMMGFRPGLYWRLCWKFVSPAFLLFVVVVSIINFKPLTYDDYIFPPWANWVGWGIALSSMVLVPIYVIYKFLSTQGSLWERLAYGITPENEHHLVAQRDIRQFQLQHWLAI
Description: Displacement of [125I]RTI-55 from human NET expressed in HEK293 cells

[4] = target: T4, Sodium-dependent serotonin transporter (Homo sapiens, UniProt P31645); assay: biochemical
T4 sequence (P31645 whole entry): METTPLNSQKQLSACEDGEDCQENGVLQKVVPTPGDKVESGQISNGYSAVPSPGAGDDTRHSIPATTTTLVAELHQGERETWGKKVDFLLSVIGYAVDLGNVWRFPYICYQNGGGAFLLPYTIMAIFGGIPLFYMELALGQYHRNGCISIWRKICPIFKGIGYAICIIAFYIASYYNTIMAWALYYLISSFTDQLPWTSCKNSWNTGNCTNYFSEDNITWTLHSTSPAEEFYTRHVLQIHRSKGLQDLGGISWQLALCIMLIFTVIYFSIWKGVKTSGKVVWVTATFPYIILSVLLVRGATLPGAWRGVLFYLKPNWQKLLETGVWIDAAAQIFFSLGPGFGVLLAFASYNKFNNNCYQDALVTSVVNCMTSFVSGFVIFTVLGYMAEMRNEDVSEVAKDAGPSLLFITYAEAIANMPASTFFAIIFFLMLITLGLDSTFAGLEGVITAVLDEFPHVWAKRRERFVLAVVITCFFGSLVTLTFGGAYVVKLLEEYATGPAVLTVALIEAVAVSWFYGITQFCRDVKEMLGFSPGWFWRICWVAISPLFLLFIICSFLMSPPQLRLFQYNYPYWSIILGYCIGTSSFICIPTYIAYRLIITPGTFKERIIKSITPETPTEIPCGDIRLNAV
Description: Displacement of [125I]RTI-55 from human SERT expressed in HEK293 cells

[5] = target: T2, 5-hydroxytryptamine receptor 1A; assay: Partial agonist activity at human 5HT1A expressed in HEK293 cells by FLIPR assay; assay type: functional, cell-based
[6] = target: T5, 5-hydroxytryptamine receptor 1A (Homo sapiens) (UniProt P08908); assay: Partial agonist activity at human 5HT1A expressed in HEK293 cells by FLIPR assay relative to 5HT; assay type: functional, cell-based
T5 sequence (whole entry): T2 sequence (P08908 whole entry)

[7] = target: T3, Sodium-dependent noradrenaline transporter; assay: Inhibition of norepinephrine uptake at human NET expressed in HEK293 cells; assay type: cell-based
[8] = target: T1, Sodium-dependent dopamine transporter; assay: Inhibition of dopamine uptake at human DAT expressed in HEK293 cells; assay type: cell-based
[9] = target: T4, Sodium-dependent serotonin transporter; assay: Inhibition of [3H]5-HT uptake at human 5HTT expressed in HEK293 cells; assay type: cell-based
[10] = Apparent intrinsic clearance in human liver microsomes; assay type: ADME, Microsome
[11] = test system: Rattus norvegicus; assay: Ex vivo receptor occupancy at NET receptor in Sprague-Dawley rat brain at 10 mg/kg, sc by [3H]nisoxetine binding; assay type: functional; conditions: route subcutaneous
[12] = test system: Rattus norvegicus; assay: Ex vivo receptor occupancy at 5HT1A receptor in Sprague-Dawley rat brain at 10 mg/kg, sc by [3H]-OH-DAPT binding; assay type: functional; conditions: route subcutaneous

T1 sequence (Q01959 whole entry): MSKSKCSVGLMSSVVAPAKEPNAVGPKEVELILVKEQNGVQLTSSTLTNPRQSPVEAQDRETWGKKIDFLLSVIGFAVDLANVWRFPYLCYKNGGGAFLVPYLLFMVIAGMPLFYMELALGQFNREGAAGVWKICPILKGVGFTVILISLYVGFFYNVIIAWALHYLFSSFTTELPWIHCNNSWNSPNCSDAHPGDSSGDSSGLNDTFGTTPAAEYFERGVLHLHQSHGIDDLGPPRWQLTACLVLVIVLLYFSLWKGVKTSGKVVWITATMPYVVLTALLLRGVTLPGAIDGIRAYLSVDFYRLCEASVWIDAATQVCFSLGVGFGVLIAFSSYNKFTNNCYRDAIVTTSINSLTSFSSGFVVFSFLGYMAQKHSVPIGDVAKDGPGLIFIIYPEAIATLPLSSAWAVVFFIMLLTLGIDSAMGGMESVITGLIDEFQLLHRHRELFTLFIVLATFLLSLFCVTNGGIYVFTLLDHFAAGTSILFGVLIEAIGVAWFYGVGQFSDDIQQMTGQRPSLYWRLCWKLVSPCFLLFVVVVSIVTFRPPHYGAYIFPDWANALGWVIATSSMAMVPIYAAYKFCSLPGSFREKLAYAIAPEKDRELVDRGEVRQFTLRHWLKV

Row | SMILES | Ki [1] [µM] | Ki [2] [µM] | Ki [3] [µM] | Ki [4] [µM] | other results
1 | c1ccc(COc2ccccc2C2CCNCC2)cc1 | 1 | 0.121 | 0.076 | 0.074 | 
2 | O=C1/C(=C/c2ccccc2N2CCNCC2)SCCN1c1ccc(F)cc1F | 1.36 | 0.004 | 0.65 | 0.098 | 
3 | Fc1cccc(C2CCNCC2)c1OCc1ccccc1 | 7.37 | 0.606 | 0.009 | 2.97 | 
4 | c1ccc(Oc2ccccc2C2CCNCC2)cc1 | 0.284 | 0.063 | 0.416 | 1.76 | 
5 | Fc1ccc(COc2ccccc2C2CCNCC2)cc1 |  | 0.077 |  |  | 
6 | Cc1ccc(C2CCNCC2)c(Oc2ccc(F)cc2)c1 | 1.68 | > 4.57 | 0.115 | 0.427 | 
7 | Fc1ccc(Oc2ccccc2N2CCNCC2)cc1 |  | 0.008 |  |  | 
8 | Fc1ccccc1COc1ccccc1N1CCNCC1 | > 10 | 0.031 | 0.526 | 0.978 | 
9 | Fc1cccc(C2CCNCC2)c1Oc1ccccc1 | 0.239 | 0.02 | 1.37 | 2.33 | EC50 [5]: 0.877 µM; Emax [6]: 35%; EC50 [7]: 0.358 µM; EC50 [8]: 0.982 µM; EC50 [9]: 1.76 µM; microsomal CLint [10]: 15 µL/min/mg
10 | c1ccc(OCc2ccccc2N2CCNCC2)cc1 | 0.701 | 0.189 |  | 0.78 | 
11 | Fc1cccc(Oc2ccccc2N2CCNCC2)c1 |  | 0.009 |  |  | 
12 | Fc1ccc(OCc2ccc(Cl)c(Cl)c2)c(C2CCNCC2)c1 | 0.452 | 1.16 | 0.02 | 0.002 | 
13 | Fc1ccccc1COc1ccccc1C1CCNCC1 |  | 0.047 |  |  | 
14 | Fc1cccc(OCc2ccccc2N2CCNCC2)c1F |  | 0.101 |  |  | 
15 | Fc1ccc(Oc2ccccc2C2CCNCC2)cc1 |  | 0.117 |  |  | 
16 | Fc1cccc(OCc2ccccc2)c1C1CCNCC1 |  | 0.364 |  |  | 

Row | SMILES | Ki [1] [µM] | Ki [2] [µM] | Ki [3] [µM] | Ki [4] [µM] | other results
17 | Clc1cccc(Oc2ccccc2C2CCNCC2)c1 |  | 0.005 |  |  | EC50 [5]: 1.15 µM; Emax [6]: 44%
18 | Fc1cccc(Oc2ccccc2)c1C1CCNCC1 | 0.045 | 0.128 | 0.17 | 0.706 | 
19 | Cc1ccc(C2CCNCC2)c(Oc2cccc(F)c2)c1 |  | > 4.57 |  |  | 
20 | Fc1cccc(OCc2ccccc2N2CCNCC2)c1 | > 2 | 0.116 | 0.104 | 0.017 | 
21 | Fc1ccc(COc2ccc(F)cc2C2CCNCC2)cc1 |  | 2.21 |  |  | 
22 | c1ccc(COc2ccccc2N2CCNCC2)cc1 |  | 0.028 |  |  | EC50 [5]: > 10 µM
23 | c1ccc(N2CCNCC2)c(COc2ccccc2C2CC2)c1 |  | 0.466 |  |  | 
24 | c1ccc(OCc2ccccc2C2CCNCC2)cc1 | 0.396 | > 1 | 1.71 | 0.364 | 
25 | Fc1cccc(Oc2cccc(F)c2C2CCNCC2)c1 |  | 0.021 |  |  | EC50 [5]: 0.137 µM; Emax [6]: 74%; Activity [11]: 80%; Activity [12]: 77%
26 | Fc1ccc(Oc2cc(F)c(F)cc2C2CCNCC2)cc1 |  | > 4.57 |  |  | 
27 | Fc1cccc(Oc2ccccc2C2CCNCC2)c1 |  |  |  |  | Emax [6]: 51%
28 | Cc1ccc(F)c(Oc2ccccc2C2CCNCC2)c1 | 1.08 | 0.057 | 0.003 | 0.026 | 
29 | O=C1C(Cc2ccccc2N2CCNCC2)SCCN1c1ccc(Cl)c(Cl)c1 (centres undefined) | 0.087 | 0.009 | 0.005 | 0.081 | 
30 | Fc1cccc(OCc2ccccc2C2CCNCC2)c1 | 0.461 | > 1 | 1.94 | 0.049 | 
31 | c1ccc(Oc2ccccc2N2CCNCC2)cc1 | 4.73 | 0.128 | 0.554 |  | 
32 | Fc1ccc(COc2ccc(Cl)cc2C2CCNCC2)cc1 | 5.53 | > 1 | 0.006 | 0.04 | 
